pKd: −log10 of the molar value.
These molecules were tested against human MLKL (full length) (Homo sapiens (Human), UniProt Q8NB16) (assay: KINOMEscan binding assay, human MLKL (full length)). Settings: KINOMEscan, Table 21; read-out: Human MLKL (full-length) (KD).
Method: (§1) Binding affinity of the test compounds for human MLKL (full length), mouse MLKL (full length), human RIPK1 and human RIPK3 was determined using the KINOMEscan™ technology developed by DiscoverX (USA; http://www.discoverx.com). The assay was conducted according to manufacturer instructions.
(§2) Kinase assays. For most assays, kinase-tagged T7 phage strains were grown in parallel in 24-well blocks in an E. coli host derived from the BL21 strain. E. coli were grown to log-phase and infected with T7 phage from a frozen stock (multiplicity of infection=0.4) and incubated with shaking at 32° C. until lysis (90-150 minutes). The lysates were centrifuged (6,000×g) and filtered (0.2 μm) to remove cell debris. The remaining kinases were produced in HEK-293 cells and subsequently tagged with DNA for qPCR detection. […] The liganded beads were blocked with excess biotin and washed with blocking buffer (SeaBlock (Pierce), 1% BSA, 0.05% Tween 20, 1 mM DTT) to remove unbound ligand and to reduce non-specific phage binding. […] All reactions were performed in polypropylene 384-well plates in a final volume of 20 μL. […] The kinase concentration in the eluates was measured by qPCR.
(§3) An 11-point 3-fold serial dilution of each test compound was prepared in 100% DMSO at 100× final test concentration and subsequently diluted to 1× in the assay (final DMSO concentration=1%). Most Kos were determined using a compound top concentration=30,000 nM.
(§4) KD for each test compound was calculated with a standard dose-response curve using the Hill equation (equation (1)): […]
(§5) The Hill Slope was set to −1.
(§6) Curves were fitted using a non-linear least square fit with the Levenberg-Marquardt algorithm.

Chain of human MLKL (full length) (Q8NB16 whole entry): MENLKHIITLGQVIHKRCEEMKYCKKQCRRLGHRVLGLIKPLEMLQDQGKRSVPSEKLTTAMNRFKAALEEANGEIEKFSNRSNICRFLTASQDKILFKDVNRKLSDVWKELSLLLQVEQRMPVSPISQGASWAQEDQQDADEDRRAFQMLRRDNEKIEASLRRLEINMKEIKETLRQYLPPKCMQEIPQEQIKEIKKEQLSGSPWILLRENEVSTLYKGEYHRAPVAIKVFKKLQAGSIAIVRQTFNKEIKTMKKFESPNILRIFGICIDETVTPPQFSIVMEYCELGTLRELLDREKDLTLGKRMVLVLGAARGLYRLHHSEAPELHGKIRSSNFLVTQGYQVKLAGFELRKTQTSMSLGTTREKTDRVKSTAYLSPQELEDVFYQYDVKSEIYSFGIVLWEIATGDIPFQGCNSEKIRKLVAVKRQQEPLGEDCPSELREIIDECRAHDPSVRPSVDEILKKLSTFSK

**Q.** How did the pKd turn out when Cn1nc(-c2ccc(NS(=O)(=O)C(F)F)c(OCc3ccc(F)cc3)c2)c2c(N)ncc(-c3ccncc3)c21 [Compound 14, N-(4-(4-amino-1-methyl-7-(pyridin-4-yl)-1H-pyrazolo[4,3-c]pyridin-3-yl)-2-((4-fluoro-benzyl)oxy)phenyl)-1,1-difluoromethane-sulfonamide] was run?
**A.** The pKd was greater than 9.00.

**Q.** How did the pKd turn out when COc1ccc([C@H](C)Oc2cc(-c3nn(C)c4c(-c5cnn(C6CCOCC6)c5)cnc(N)c34)ccc2NS(=O)(=O)C(F)F)cc1 [Compound 129, (S)-N-(4-(4-amino-1-methyl-7-(1-(tetrahydro-2H-pyran-4-yl)-1H-pyrazol-4-yl)-1H-pyrazolo[4,3-c]pyridin-3-yl)-2-(1-(4-methoxy-phenyl)ethoxy)phenyl)-1,1-difluoromethane-sulfonamide] was run?
**A.** Its pKd is greater than 9.00.

Same assay, conditions: hMLKL, Table 25; read-out: MLKL (KD)

**Q.** How did the pKd turn out when Cc1ncsc1-c1ccc(CNC(=O)[C@@H]2C[C@@H](O)CN2C(=O)[C@@H](NC(=O)CCN2CCC(C#Cc3cnc(N)c4c(-c5ccc(NS(=O)(=O)C(F)F)c(O[C@@H](C)c6ccc(F)cc6)c5)nn(C)c34)CC2)C(C)(C)C)cc1 [Compound 1024, (2S,4R)-1-[(2S)-2-{3-[4-(2-{4-amino-3-[4-(difluoromethanesulfonamido)-3-[(1S)-1-(4-fluorophenyl)ethoxy]phenyl]-1-methyl-1H-pyrazolo[4,3-c]pyridin-7-yl}ethynyl)piperidin-1-yl]propanamido}-3,3-dimethylbutanoyl]-4-hydroxy-N-{[4-(4-methyl-1,3-thiazol-5-yl)phenyl]methyl}pyrrolidine-2-carboxamide] was run?
**A.** Its pKd is greater than 8.00.

**Q.** Cc1ncsc1-c1ccc(CNC(=O)[C@@H]2C[C@@H](O)CN2C(=O)[C@@H](NC(=O)c2ccc(OCCn3cc(-c4cnc(N)c5c(-c6ccc(NS(=O)(=O)C(F)F)c(O[C@@H](C)c7ccc(F)cc7)c6)nn(C)c45)cn3)cc2)C(C)(C)C)cc1 [Compound 1037, (2S,4R)-1-[(2S)-2-({4-[2-(4-{4-amino-3-[4-(difluoromethanesulfonamido)-3-[(1S)-1-(4-fluorophenyl)ethoxy]phenyl]-1-methyl-1H-pyrazolo[4,3-c]pyridin-7-yl}-1H-pyrazol-1-yl)ethoxy]phenyl}formamido)-3,3-dimethylbutanoyl]-4-hydroxy-N-{[4-(4-methyl-1,3-thiazol-5-yl)phenyl]methyl}pyrrolidine-2-carboxamide] was tested. Which pKd did it give?
**A.** The pKd was 6.00 to 8.00.

**Q.** How did the pKd turn out when Cc1ncsc1-c1ccc(CNC(=O)[C@@H]2C[C@@H](O)CN2C(=O)[C@@H](NC(=O)CCCCN2CCC(C#Cc3cnc(N)c4c(-c5ccc(NS(=O)(=O)C(F)F)c(O[C@@H](C)c6ccc(F)cc6)c5)nn(C)c34)CC2)C(C)(C)C)cc1 [Compound 1063, (2S,4R)-1-[(2S)-2-{5-[4-(2-{4-amino-3-[4-(difluoromethanesulfonamido)-3-[(1S)-1-(4-fluorophenyl)ethoxy]phenyl]-1-methyl-1H-pyrazolo[4,3-c]pyridin-7-yl}ethynyl)piperidin-1-yl]pentanamido}-3,3-dimethylbutanoyl]-4-hydroxy-N-{[4-(4-methyl-1,3-thiazol-5-yl)phenyl]methyl}pyrrolidine-2-carboxamide] was run?
**A.** The pKd was greater than 8.00.

**Q.** With Cc1ncsc1-c1ccc(CNC(=O)[C@@H]2C[C@@H](O)CN2C(=O)[C@@H](NC(=O)CCCCOC(=O)c2ccc(-c3cnc(N)c4c(-c5ccc(NS(=O)(=O)C(F)F)c(O[C@@H](C)c6ccc(F)cc6)c5)nn(C)c34)cn2)C(C)(C)C)cc1 [Compound 1065, 4-{[(2S)-1-[(2S,4R)-4-hydroxy-2-({[4-(4-methyl-1,3-thiazol-5-yl)phenyl]methyl}carbamoyl)pyrrolidin-1-yl]-3,3-dimethyl-1-oxobutan-2-yl]carbamoyl}butyl 5-{4-amino-3-[4-(difluoromethanesulfonamido)-3-[(1S)-1-(4-fluorophenyl)ethoxy]phenyl]-1-methyl-1H-pyrazolo[4,3-c]pyridin-7-yl}pyridine-2-carboxylate] as the molecule, how does the pKd read?
**A.** Its pKd is greater than 8.00.

**Q.** With CN[C@@H](C)C(=O)N[C@H](C(=O)N1C[C@H](NC(=O)CCCCn2cc(-c3cnc(N)c4c(-c5ccc(NS(=O)(=O)C(F)F)c(O[C@@H](C)c6ccc(F)cc6)c5)nn(C)c34)cn2)C[C@H]1C(=O)Nc1c(F)cccc1F)C(C)(C)C [Compound 1080, (2S)-4-[5-(4-{4-amino-3-[4-(difluoromethanesulfonamido)-3-[(1S)-1-(4-fluorophenyl)ethoxy]phenyl]-1-methyl-1H-pyrazolo[4,3-c]pyridin-7-yl}-1H-pyrazol-1-yl)pentanamido]-N-(2,6-difluorophenyl)-1-[(2S)-3,3-dimethyl-2-[(2S)-2-(methylamino)propanamido]butanoyl]pyrrolidine-2-carboxamide] as the molecule, how does the pKd read?
**A.** Its pKd is greater than 8.00.

**Q.** CN[C@@H](C)C(=O)N[C@H](C(=O)N1C[C@H](NC(=O)COCCn2cc(-c3cnc(N)c4c(-c5ccc(NS(=O)(=O)C(F)F)c(O[C@@H](C)c6ccc(F)cc6)c5)nn(C)c34)cn2)C[C@H]1C(=O)Nc1c(F)cccc1F)C(C)(C)C [Compound 1089, (2S)-4-{2-[2-(4-{4-amino-3-[4-(difluoromethanesulfonamido)-3-[(1S)-1-(4-fluorophenyl)ethoxy]phenyl]-1-methyl-1H-pyrazolo[4,3-c]pyridin-7-yl}-1H-pyrazol-1-yl)ethoxy]acetamido}-N-(2,6-difluorophenyl)-1-[(2S)-3,3-dimethyl-2-[(2S)-2-(methylamino)propanamido]butanoyl]pyrrolidine-2-carboxamide] was tested. Which pKd did it give?
**A.** Its pKd is greater than 8.00.

**Q.** How did the pKd turn out when COc1ccc(C(=O)N2CCC(n3cc(-c4cnc(N)c5c(-c6ccc(NS(=O)(=O)C(F)F)c(O[C@@H](C)c7ccc(F)cc7)c6)nn(C)c45)cn3)CC2)cc1N1CCC(=O)NC1=O [Compound 1092, N-{4-[4-amino-7-(1-{1-[3-(2,4-dioxo-1,3-diazinan-1-yl)-4-methoxybenzoyl]piperidin-4-yl}-1H-pyrazol-4-yl)-1-methyl-1H-pyrazolo[4,3-c]pyridin-3-yl]-2-[(1S)-1-(4-fluorophenyl)ethoxy]phenyl}-1,1-difluoromethanesulfonamide] was run?
**A.** The pKd was greater than 8.00.

**Q.** With C[C@H](Oc1cc(-c2nn(C)c3c(-c4cnn(C5CCN(CCN6CCCC6COc6cccc7c6C(=O)N(C6CCC(=O)NC6=O)C7=O)CC5)c4)cnc(N)c23)ccc1NS(=O)(=O)C(F)F)c1ccc(F)cc1 (stereo partly drawn) [Compound 1120, N-(4-{4-amino-7-[1-(1-{2-[2-({[2-(2,6-dioxopiperidin-3-yl)-1,3-dioxo-2,3-dihydro-1H-isoindol-4-yl]oxy}methyl)pyrrolidin-1-yl]ethyl}piperidin-4-yl)-1H-pyrazol-4-yl]-1-methyl-1H-pyrazolo[4,3-c]pyridin-3-yl}-2-[(1S)-1-(4-fluorophenyl)ethoxy]phenyl)-1,1-difluoromethanesulfonamide] as the molecule, how does the pKd read?
**A.** The pKd was greater than 8.00.

**Q.** With Cc1ncsc1-c1ccc(CNC(=O)[C@@H]2C[C@@H](O)CN2C(=O)[C@@H](NC(=O)C2(F)CC2)C(C)(C)C)c(OCCCCCCCCCn2cc(-c3cnc(N)c4c(-c5ccc(NS(=O)(=O)C(F)F)c(O[C@@H](C)c6ccc(F)cc6)c5)nn(C)c34)cn2)c1 [Compound 1138, (2S,4R)—N-[(2-{[9-(4-{4-amino-3-[4-(difluoromethanesulfonamido)-3-[(1S)-1-(4-fluorophenyl)ethoxy]phenyl]-1-methyl-1H-pyrazolo[4,3-c]pyridin-7-yl}-1H-pyrazol-1-yl)nonyl]oxy}-4-(4-methyl-1,3-thiazol-5-yl)phenyl)methyl]-1-[(2S)-2-[(1-fluorocyclopropyl) formamido]-3,3-dimethylbutanoyl]-4-hydroxypyrrolidine-2-carboxamide] as the molecule, how does the pKd read?
**A.** Its pKd is 6.00 to 8.00.

**Q.** C[C@H](Oc1cc(-c2nn(C)c3c(-c4cnn(C5CCN(C(=O)CCC6CCN(c7cccc8c7C(=O)N(C7CCC(=O)N(C)C7=O)C8=O)CC6)CC5)c4)cnc(N)c23)ccc1NS(=O)(=O)C(F)F)c1ccc(F)cc1 (stereo partly drawn) [Compound 1141, N-[4-(4-amino-1-methyl-7-{1-[1-(3-{1-[2-(1-methyl-2,6-dioxopiperidin-3-yl)-1,3-dioxo-2,3-dihydro-1H-isoindol-4-yl]piperidin-4-yl}propanoyl)piperidin-4-yl]-1H-pyrazol-4-yl}-1H-pyrazolo[4,3-c]pyridin-3-yl)-2-[(1S)-1-(4-fluorophenyl)ethoxy]phenyl]-1,1-difluoromethanesulfonamide] was tested. Which pKd did it give?
**A.** The pKd was greater than 8.00.

These molecules were tested against human RIPK1 (Homo sapiens (Human), UniProt Q13546) (assay: KINOMEscan binding assay, human RIPK1). Settings: Table 21.
Method: as §1, §2, §3, §4, §5, §6

Chain of human RIPK1 (Q13546 whole entry): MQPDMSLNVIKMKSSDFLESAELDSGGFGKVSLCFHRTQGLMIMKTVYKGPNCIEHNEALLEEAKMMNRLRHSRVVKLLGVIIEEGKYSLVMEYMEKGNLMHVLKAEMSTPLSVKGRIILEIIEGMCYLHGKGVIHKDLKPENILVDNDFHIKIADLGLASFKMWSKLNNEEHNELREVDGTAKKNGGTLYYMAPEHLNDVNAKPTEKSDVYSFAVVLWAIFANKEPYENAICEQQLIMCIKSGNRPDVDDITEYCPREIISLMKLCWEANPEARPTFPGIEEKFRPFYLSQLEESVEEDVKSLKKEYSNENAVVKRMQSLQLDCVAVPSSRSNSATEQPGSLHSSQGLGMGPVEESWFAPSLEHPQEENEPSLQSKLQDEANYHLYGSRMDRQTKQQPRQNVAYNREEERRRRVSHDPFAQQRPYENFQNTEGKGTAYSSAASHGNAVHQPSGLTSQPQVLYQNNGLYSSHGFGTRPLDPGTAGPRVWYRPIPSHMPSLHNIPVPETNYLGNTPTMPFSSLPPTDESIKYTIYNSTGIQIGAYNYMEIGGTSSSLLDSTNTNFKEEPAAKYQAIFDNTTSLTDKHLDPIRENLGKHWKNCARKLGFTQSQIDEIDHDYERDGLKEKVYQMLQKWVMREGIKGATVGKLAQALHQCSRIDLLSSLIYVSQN

**Q.** With CCS(=O)(=O)Nc1ccc(-c2nn(C)c3c(NC(C)=O)cnc(N)c23)cc1OCc1ccc(F)cc1 [Compound 2, N-(4-amino-3-(4-(ethylsulfonamido)-3-((4-fluorobenzyl)oxy)phenyl)-1-methyl-1H-pyrazolo[4,3-c]pyridin-7-yl)acetamide] as the molecule, how does the pKd read?
**A.** The pKd was less than 5.00.

**Q.** CCS(=O)(=O)Nc1ccc(-c2coc3c(-c4cnn(CCO)c4)cnc(N)c23)cc1OCc1ccc(F)cc1 [Compound 4, N-(4-(4-amino-7-(1-(2-hydroxyethyl)-1H-pyrazol-4-yl)furo[3,2-c]pyridin-3-yl)-2-((4-fluorobenzyl)oxy)phe-nyl)ethanesulfonamide] was tested. Which pKd did it give?
**A.** Its pKd is less than 5.00.

**Q.** How did the pKd turn out when Cn1nc(-c2ccc(NS(=O)(=O)C(F)F)c(OCc3ccc(F)cc3)c2)c2c(N)nccc21 [Compound 10, N-(4-{4-amino-1-methyl-1H-pyrazolo[4,3-c]pyridin-3-yl}-2-[(4-fluorophenyl)methoxy]phenyl)-1,1-difluoromethanesulfonamide] was run?
**A.** Its pKd is less than 5.00.

Each molecule was assayed against human RIPK3 (Homo sapiens (Human), UniProt Q9Y572) (assay: KINOMEscan binding assay, human RIPK3). Settings: Table 21.
Method: as §1, §2, §3, §4, §5, §6

Chain of human RIPK3 (Q9Y572 whole entry): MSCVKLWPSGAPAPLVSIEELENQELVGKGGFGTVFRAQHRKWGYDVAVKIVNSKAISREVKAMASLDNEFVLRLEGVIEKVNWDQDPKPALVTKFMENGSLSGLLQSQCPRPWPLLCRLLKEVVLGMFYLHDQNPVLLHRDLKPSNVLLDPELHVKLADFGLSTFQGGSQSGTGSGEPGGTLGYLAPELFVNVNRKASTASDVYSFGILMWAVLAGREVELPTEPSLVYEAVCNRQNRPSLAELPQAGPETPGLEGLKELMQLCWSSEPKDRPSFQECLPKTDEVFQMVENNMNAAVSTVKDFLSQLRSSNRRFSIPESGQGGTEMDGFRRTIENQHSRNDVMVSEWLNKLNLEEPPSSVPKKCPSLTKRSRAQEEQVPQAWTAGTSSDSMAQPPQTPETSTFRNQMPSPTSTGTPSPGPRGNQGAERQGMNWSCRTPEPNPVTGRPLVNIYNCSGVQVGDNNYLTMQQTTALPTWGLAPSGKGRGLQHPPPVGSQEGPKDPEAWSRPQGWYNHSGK

**Q.** How did the pKd turn out when CCS(=O)(=O)Nc1ccc(-c2nn(C)c3c(NC(C)=O)cnc(N)c23)cc1OCc1ccc(F)cc1 [Compound 2, N-(4-amino-3-(4-(ethylsulfonamido)-3-((4-fluorobenzyl)oxy)phenyl)-1-methyl-1H-pyrazolo[4,3-c]pyridin-7-yl)acetamide] was run?
**A.** The pKd was less than 5.00.

**Q.** How did the pKd turn out when CCS(=O)(=O)Nc1ccc(-c2coc3c(-c4cnn(CCO)c4)cnc(N)c23)cc1OCc1ccc(F)cc1 [Compound 4, N-(4-(4-amino-7-(1-(2-hydroxyethyl)-1H-pyrazol-4-yl)furo[3,2-c]pyridin-3-yl)-2-((4-fluorobenzyl)oxy)phe-nyl)ethanesulfonamide] was run?
**A.** The pKd was less than 5.00.

**Q.** How did the pKd turn out when Cn1nc(-c2ccc(NS(=O)(=O)C(F)F)c(OCc3ccc(F)cc3)c2)c2c(N)nccc21 [Compound 10, N-(4-{4-amino-1-methyl-1H-pyrazolo[4,3-c]pyridin-3-yl}-2-[(4-fluorophenyl)methoxy]phenyl)-1,1-difluoromethanesulfonamide] was run?
**A.** Its pKd is less than 5.00.

From patent publication US20250115598A1 (Anaxis Pharma Pty Ltd, priority 2021, published 2025)
